Reference: patent US20240307362A1 (priority 2019, published 2024)
Several values for one entry are separate records, joined by “and”; a condition that tells them apart may be missing. Equal entries are not always repeated. Where two headings read alike, the source gives them in different places.

How the values were obtained:
Ba/F3-EGFR-WT = assay: Ba/F3 cell survival assay, WT EGFR; type: cell-based
Procedure: (§1) 293T cells from ATCC were transfected with pBABEpuro expression constructs for WT EGFR or EGFR-insSVD and pCL-Eco packaging vector using Fugene-6 transfection reagent from Promega. Plates were incubated at 37° C. for 48 h. Retrovirus was harvested by filtering the media supernatant through a 0.45 μm filter.
(§2) Ba/F3 cells purchased from DSMZ were grown in RPMI+10% FBS+10 ng/mL IL-3 and infected with filtered retroviral supernatant at a 1:2 dilution. Polybrene was added to a concentration of 8 μg/mL, plates were spun for 90 min, and incubated overnight at 37° C. 2 μg/mL puromycin was added to the infected cells 24 h after infection and cells were continually grown in the presence of puromycin and 10 ng/mL IL-3. Following stably expressing Ba/F3 cell lines were generated: Ba/F3-EGFR-WT, Ba/F3-EGFR-insSVD, (Ba/F3-vector-control).
The cells ectopically expressing WT EGFR or EGFR-insSVD were plated with 10 ng/mL Millipore Culture grade EGF. The cells ectopically expressing pBABEpuro empty vector were plated with 10 ng/mL IL-3.
100 nL of compound was added to each well using a 100 nL pin head, and plates were incubated at 37° C. for 48 h.
(§3) Cell viability was measured by adding 20 μL of Cell Titer-Glo Luminescent Cell Viability Reagent diluted 1:3 in PBS. Plates were sealed with Perkin Elmer Top-Seal, inverted several times to mix, and immediately centrifuged at 1000 rpm for 2 min.

Ba/F3-EGFR-insSVD = assay: Ba/F3 cell survival assay, EGFR-insSVD; type: cell-based
Procedure: as §1, §2
For cell survival assays, Ba/F3 cells were grown to a density of 1-2 million cells per mL, spun down and resuspended in media without IL-3, and replated at a concentration 200,000-500,000 cells per mL. The cells ectopically expressing WT EGFR or EGFR-insSVD were plated with 10 ng/mL Millipore Culture grade EGF. The cells ectopically expressing pBABEpuro empty vector were plated with 10 ng/mL IL-3.
2 days later, cells were plated in 50 μL in a 384 well plate at a concentration of 4000 cells per well for cells assayed in the absence of IL-3 and 2000 cells per well for cells assayed in the presence of IL-3. 100 nL of compound was added to each well using a 100 nL pin head, and plates were incubated at 37° C. for 48 h.
as §3, with “min. Plates were incubated in low light conditions for 8-10 min and luminescence was measured.” for “min.”

human Bub1 = human Bub1 (Homo sapiens (Human), UniProt O43683); assay: Bub1 high ATP kinase assay (TR-FRET); type: biochemical
Sequence of human Bub1 (O43683 704-1085): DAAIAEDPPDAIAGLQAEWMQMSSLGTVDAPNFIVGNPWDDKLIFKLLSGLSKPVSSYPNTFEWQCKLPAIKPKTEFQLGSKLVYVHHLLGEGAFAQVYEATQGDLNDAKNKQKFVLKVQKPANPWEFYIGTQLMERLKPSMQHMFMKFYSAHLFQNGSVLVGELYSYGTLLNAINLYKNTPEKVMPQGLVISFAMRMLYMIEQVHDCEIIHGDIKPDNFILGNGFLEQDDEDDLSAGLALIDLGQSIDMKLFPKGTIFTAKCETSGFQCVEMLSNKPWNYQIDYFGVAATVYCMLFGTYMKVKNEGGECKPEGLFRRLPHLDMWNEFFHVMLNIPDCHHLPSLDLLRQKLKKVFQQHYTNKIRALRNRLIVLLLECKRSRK
Source text: Bub1-inhibitory activity of compounds of the present invention at a high ATP concentration was quantified employing the Bub1 TR-FRET high ATP kinase assay as described in the following paragraphs.
N-terminally His6-tagged recombinant catalytic domain of human Bub1 (amino acids 704-1085), expressed in insect cells (Hi5) and purified by Ni-NTA affinity chromatography and subsequent size exclusion chromatography, was used as enzyme.

[1] = Mus musculus, BaF3, 48 h, read-out: BA/F3 (wild type) IC50, cell viability, Cell Titer-Glo, 48 h, with 10 ng/mL EGF, without IL-3
[2] = Mus musculus, BaF3, 48 h, read-out: BA/F3 (insSVD) IC50, cell viability, Cell Titer-Glo, 48 h, with 10 ng/mL EGF, without IL-3
[3] = read-out: Bub1 high ATP (2 mM) IC50, 2 mM ATP
[4] = read-out: BA/F3 (wild type) IC50, cell viability, Cell Titer-Glo, 48 h, with 10 ng/mL EGF, without IL-3
[5] = read-out: BA/F3 (insSVD) IC50, cell viability, Cell Titer-Glo, 48 h, with 10 ng/mL EGF, without IL-3
[6] = Bub1 high ATP (2 mM) IC50, 2 mM ATP

Row | Structure (SMILES) | IC50 (Ba/F3-EGFR-WT; [1]) [nM] | IC50 (Ba/F3-EGFR-insSVD; [2]) [nM] | IC50 (human Bub1; [3]) | IC50 (Ba/F3-EGFR-WT; [4]) [nM] | IC50 (Ba/F3-EGFR-insSVD; [5]) [nM] | IC50 (human Bub1; [6]) [nM]
1 | COc1c(Cl)cccc1Nc1c(-c2ccncc2OCCC2CCO2)[nH]c2c1C(=O)NCC2 (racemic) [Example 24, 3-(3-chloro-2-methoxyanilino)-2-{3-[2-(oxetan-2-yl)ethoxy]pyridin-4-yl}-1,5,6,7-tetrahydro-4H-pyrrolo[3,2-c]pyridin-4-one] | 636 | 17.5 | 2700 nM | – | – | –
2 | Cc1cccc(Nc2c(-c3ccncc3OCC3OCC3(C)C)[nH]c3c2C(=O)NCC3)c1Cl (single isomer, unassigned; (-)) [Example 60, (−)-3-(2-chloro-3-methylanilino)-2-{3-[(3,3-dimethyloxetan-2-yl)methoxy]pyridin-4-yl}-1,5,6,7-tetrahydro-4H-pyrrolo[3,2-c]pyridin-4-one] | – | – | 18800 nM and > 20000 nM | 2130 | > 1000 | –
3 | Cc1cccc(Nc2c(-c3ccncc3OCC3OCC3(C)C)[nH]c3c2C(=O)NCC3)c1Cl (single isomer, unassigned; (+)) [Example 59, (+)-3-(2-chloro-3-methylanilino)-2-{3-[(3,3-dimethyloxetan-2-yl)methoxy]pyridin-4-yl}-1,5,6,7-tetrahydro-4H-pyrrolo[3,2-c]pyridin-4-one] | – | – | > 20000 nM | 655 | 59.9 | –
4 | Cc1cccc(Nc2c(-c3ccncc3OCC3CCO3)[nH]c3c2C(=O)NCC3)c1Cl (racemic) [Example 37, 3-(2-chloro-3-methylanilino)-2-{3-[(oxetan-2-yl)methoxy]pyridin-4-yl}-1,5,6,7-tetrahydro-4H-pyrrolo[3,2-c]pyridin-4-one] | 942 | 105 | 11700 nM | – | – | –
5 | CC1(C)COC1COc1cnccc1-c1[nH]c2c(c1Nc1cccc(Cl)c1OC(F)F)C(=O)NCC2 (single isomer, unassigned) [Example 73, 3-[3-chloro-2-(difluoromethoxy)anilino]-2-(3-{[3,3-dimethyloxetan-2-yl]methoxy}pyridin-4-yl)-1,5,6,7-tetrahydro-4H-pyrrolo[3,2-c]pyridin-4-one] | 1910 | – | > 20000 nM | – | 92.3 | –
6 | COc1c(F)cccc1Nc1c(-c2ccncc2OCCC2CCO2)[nH]c2c1C(=O)NCC2 (single isomer, unassigned) [Example 44, 3-(3-fluoro-2-methoxyanilino)-2-{3-[2-(oxetan-2-yl)ethoxy]pyridin-4-yl}-1,5,6,7-tetrahydro-4H-pyrrolo[3,2-c]pyridin-4-one] | 903 | 34.1 | – | – | – | > 20000
7 | Cc1c(Cl)cc(F)cc1Nc1c(-c2ccncc2OCC2CCO2)[nH]c2c1C(=O)NCC2 (racemic) [Example 40, 3-(3-chloro-5-fluoro-2-methylanilino)-2-{3-[(oxetan-2-yl)methoxy]pyridin-4-yl}-1,5,6,7-tetrahydro-4H-pyrrolo[3,2-c]pyridin-4-one] | 2980 | 115 | 10500 nM | – | – | –
8 | COc1c(F)cccc1Nc1c(-c2ccncc2OCC2OCC2(C)C)[nH]c2c1C(=O)NCC2 (single isomer, unassigned; (+)) [Example 54, (+)-2-{3-[(3,3-dimethyloxetan-2-yl)methoxy]pyridin-4-yl}-3-(3-fluoro-2-methoxyanilino)-1,5,6,7-tetrahydro-4H-pyrrolo[3,2-c]pyridin-4-one] | – | – | > 20000 nM | 498 | 30.9 | –
9 | CCC1(COc2cnccc2-c2[nH]c3c(c2Nc2cccc(Cl)c2Cl)C(=O)NCC3)COC1 [Example 87, 3-(2,3-dichloroanilino)-2-{3-[(3-ethyloxetan-3-yl)methoxy]pyridin-4-yl}-1,5,6,7-tetrahydro-4H-pyrrolo[3,2-c]pyridin-4-one] | 813 | 119 | > 5700 nM | – | – | –
10 | COc1c(Cl)cccc1Nc1c(-c2ccncc2OCCC2CCO2)[nH]c2c1C(=O)NCC2 (single isomer, unassigned; (+)) [Example 25, (+)-3-(3-chloro-2-methoxyanilino)-2-{3-[2-(oxetan-2-yl)ethoxy]pyridin-4-yl}-1,5,6,7-tetrahydro-4H-pyrrolo[3,2-c]pyridin-4-one] | 121 | 4.21 | 1080 nM | – | – | –
11 | COc1c(Cl)cc(F)cc1Nc1c(-c2ccncc2OCC2CCO2)[nH]c2c1C(=O)NCC2 (racemic) [Example 65, 3-(3-chloro-5-fluoro-2-methoxyanilino)-2-(3-{[oxetan-2-yl]methoxy}pyridin-4-yl)-1,5,6,7-tetrahydro-4H-pyrrolo[3,2-c]pyridin-4-one] | 911 | 89.8 | > 20000 nM | – | – | –
12 | COc1c(Cl)cccc1Nc1c(-c2ccncc2OCC2OCC2(C)C)[nH]c2c1C(=O)NCC2 (single isomer, unassigned; (-)) [Example 51, (−)-3-(3-chloro-2-methoxyanilino)-2-{3-[(3,3-dimethyloxetan-2-yl)methoxy]pyridin-4-yl}-1,5,6,7-tetrahydro-4H-pyrrolo[3,2-c]pyridin-4-one] | – | – | 17100 nM and 17300 nM and > 20000 nM | 1050 | 153 | –
13 | Cc1cccc(Nc2c(-c3ccncc3OCCC3CCO3)[nH]c3c2C(=O)NCC3)c1Cl (stereo not shown) [Example 62, 3-(2-chloro-3-methylanilino)-2-{3-[2-(oxetan-2-yl)ethoxy]pyridin-4-yl}-1,5,6,7-tetrahydro-4H-pyrrolo[3,2-c]pyridin-4-one] | 3700 | 42.1 | 5250 nM | – | – | > 5710
14 | COc1c(F)cccc1Nc1c(-c2ccncc2OCC2(C)CCO2)[nH]c2c1C(=O)NCC2 (racemic) [Example 19, 3-(3-fluoro-2-methoxyanilino)-2-{3-[(2-methyloxetan-2-yl)methoxy]pyridin-4-yl}-1,5,6,7-tetrahydro-4H-pyrrolo[3,2-c]pyridin-4-one] | 2060 | 66.7 | 13700 nM and > 20000 nM | – | – | –
15 | COc1c(Cl)cccc1Nc1c(-c2ccncc2OCC2(C)CCO2)[nH]c2c1C(=O)NCC2 (single isomer, unassigned; (-)) [Example 47, (−)-3-(3-chloro-2-methoxyanilino)-2-{3-[(2-methyloxetan-2-yl)methoxy]pyridin-4-yl}-1,5,6,7-tetrahydro-4H-pyrrolo[3,2-c]pyridin-4-one] | – | – | 8860 nM | 975 | 96.4 | –
16 | Cc1c(Cl)cccc1Nc1c(-c2ccncc2OC[C@@H]2CCO2)[nH]c2c1C(=O)NCC2 [Example 8, 3-(3-chloro-2-methylanilino)-2-(3-{[(2S)-oxetan-2-yl]methoxy}pyridin-4-yl)-1,5,6,7-tetrahydro-4H-pyrrolo[3,2-c]pyridin-4-one] | 230 | 12.5 | 7610 nM | – | – | –
17 | O=C1NCCc2[nH]c(-c3ccncc3OCC3CCO3)c(Nc3cccc(Cl)c3Cl)c21 (single isomer, unassigned; (-)) [Example 12, (−)-3-(2,3-dichloroanilino)-2-{3-[(oxetan-2-yl)methoxy]pyridin-4-yl}-1,5,6,7-tetrahydro-4H-pyrrolo[3,2-c]pyridin-4-one] | – | – | 11300 nM | 991 | 192 | –
18 | COc1c(Br)cccc1Nc1c(-c2ccncc2OCC2CCO2)[nH]c2c1C(=O)NCC2 (single isomer, unassigned) [Example 34, 3-(3-bromo-2-methoxyanilino)-2-{3-[(oxetan-2-yl)methoxy]pyridin-4-yl}-1,5,6,7-tetrahydro-4H-pyrrolo[3,2-c]pyridin-4-one] | – | – | – | 519 | 20.4 | > 20000
